pEC50, pIC50: −log10 of the molar value. Where two headings read alike, the source gives them in different places.
Columns and labels:
[1] = tested on: kynurenine production in HeLa cells; assay: Inhibition of kynurenine production in HeLa cells; type: cell-based, human; details: 48 h, HeLa cells, human IFN-γ 50 ng/mL, kynurenine read at 480 nm, read-out: IC50
Procedure: (§1) The effect of compounds described herein on the inhibition of kynurenine production in HeLa cells (derived from human cervical cancer) was determined. HeLa cells were seeded into a 96-well culture plate at a density of 5×10^3 per well in RPMI1640/phenol red free media (from GIBCO) with 2 mM L-glutamine and 10% fetal bovine serum (FBS, from GIBCO) and grown overnight in a 37° C. incubator with 5% CO2. Twenty-four hours later, human IFN-γ (from GIBCO) (final concentration 50 ng/mL) and test compound solutions (serially diluted to different wells) were added to each well with a final volume of 200 uL per well. Forty-eight hours after incubation with compounds, 140 uL supernatant was taken from each well and was transferred to a new 96-well plate. Ten microliters of 6.1 N trichloroacetic acid were added into each well, mixed and incubated at 50° C. for 30 minutes. The reaction mixture was then centrifuged for 10 minutes at 2500 rpm and 100 uL of the supernatant per well was transferred to another 96 well plate and mixed with 100 uL of 2% (w/v) p-dimethylaminobenzaldehyde in acetic acid. The yellow color derived from kynurenine was measured at 480 nm using a SPECTRAmax i3 reader. Each compound concentration was done in triplicates and compound IC50 value was calculated using nonlinear regression using Graphpad Prism 5.0.
The inhibitory activity of representative compounds described herein, compared with another IDO inhibitor, such as INCB-24360, Controls 1 and 2 are shown in Table 2.

[2] = Human hepatocyte clearance study; type: in vitro ADME; details: pooled cryopreserved human hepatocytes (suspension); for CLint scaled at 1 µM: human, scaled up from in vitro t1/2, scaling factor 2544.3, read-out: Human Scale-up Clint; for hepatocyte CLint at 1 µM / half-life at 1 µM: pooled human hepatocytes; for hepatocyte CLint at 1 µM: read-out: Human In vitro Clint (μL/min/10^6 cells); for half-life at 1 µM: read-out: Human In vitro T1/2
Procedure: (§2) The in vitro human hepatocyte clearance of compounds described here was studied using pooled human hepatocytes purchased from BioreclamationIVT (Westbury, NY, Cat #X008001, Lot #TQJ). The assay was conducted according to manufacture's instruction. Briefly, 10 mM stock solutions of test compounds and positive control (Verapamil) were prepared in 100% DMSO. Thawing media (50 mL) used in the study consists of: 31 mLWilliams E medium (GIBCO Cat #12551-032); 15 mL isotonic percoll (GE Healthcare Cat #17-0891-09); 500 uL 100XGlutaMax (GIBCO Cat #35050); 750 uL HEPES (GIBCO Cat #15630-080); 2.5 mL FBS (Corning Cat #35-076*CVR); 50 uL human insulin (GIBCO Cat #12585-014) and 5 uL dexamethasone (NICPBP). Incubation media is made of Williams E medium supplemented with 1xGlutaMax. Both thawing medium and incubation medium (serum-free) were placed in a 37° C. water bath for at least 15 minutes prior to use. Compound stock solutions were diluted to 100 μM by combining 198 μL of 50% acetonitrile/50% water and 2 μL of 10 mM stock solution. Verapamil was use as positive control in the assay. Vials of cryopreserved hepatocytes were removed from storage and thawed in a 37° C. water bath with gentle shaking. Contents of the vial were poured into the 50 mL thawing medium conical tube. Vials were centrifuged at 100 g for 10 minutes at room temperature. Thawing medium was aspirated and hepatocytes were re-suspended with serum-free incubation medium to yield ˜1.5×10^6 cells/mL. Hepatocyte viability and density were counted using a Trypan Blue exclusion, and then cells were diluted with serum-free incubation medium to a working cell density of 0.5×10^6 viable cells/mL. Then, a portion of the hepatocytes at 0.5×10^6 viable cells/mL was boiled for 5 minutes prior to adding to the plate as negative control to eliminate the enzymatic activity so that little or no substrate turnover should be observed. The boiled hepatocytes were used to prepare negative samples. Aliquots of 198 μL hepatocytes were dispensed into each well of a 96-well non-coated plate. The plate was placed in the incubator on an orbital shaker at 500 rpm for approximately 10 minutes. Aliquots of 2 μL of the 100 μM test compound or positive control were added into respective wells of the non-coated 96-well plate to start the reaction. This assay was performed in duplicate. The plate was incubated in the incubator on an orbital shaker at 500 rpm for the designated time points. Twenty-five microliter of contents were transferred and mixed with 6 volumes (150 μL) of cold acetonitrile with IS (200 nM imipramine, 200 nM labetalol and 200 nM diclofenac) to terminate the reaction at time points of 0, 15, 30, 60, 90 and 120 minutes. Samples were centrifuged at 3,220 g for 25 minutes and aliquots of 150 μL of the supernatants were used for LC-MS/MS analysis. For data analysis, all calculations were carried out using Microsoft Excel. Peak areas were determined from extracted ion chromatograms. The in vitro half-life (t1/2) of parent compound was determined by regression analysis of the percent parent disappearance vs. time curve. The in vitro half-life (in vitro t1/2) was determined from the slope value: in vitro t1/2=0.693/k. […] Scaling factors for in vivo intrinsic clearance prediction using human hepatocytes are listed as: liver weight (g liver/kg body weight): 25.7; hepatocyte concentration (10^6 cells/g liver): 99; scaling factor: 2544.3.

pooled human hepatocytes = assay: Human hepatocyte clearance study; type: in vitro ADME
Procedure: as §2

[3] = tested on: T cells and HeLa cells co-culture; assay: T cells and HeLa cells co-culture assay (IFN-gamma production); type: cell-based, human; details: CD3 T cells + HeLa cells, 72 hr, FIG. 4, read-out: EC50, production of IFN-gamma in the T cells and HeLa cells co-culture media
Procedure: HeLa cells were seeded into 96-well plate (5000 cells per well in 100 μL of cell growth media DMEM with 10% FBS and 1% pen/strep) and incubated at 37° C. with 5% CO2. After overnight incubation, 200 μL of INF-gamma (50 ng/ml in growth media) was added to the plate and returned to incubator for another 48 hr. SepMater™-50 centrifuge tube was used to isolate PBMC from human donor according to manufacture's instruction (Stemcell). The CD3 T cell was then isolated from the PBMC using EasySep Human T cell isolation kit (Stemcell). Wash the 96-well plat twice with 200 μL of co-culture media (RPMI-1640+10% FBS+1% Pen/strep). Adjust the CD3 T cells density to 5×10^5 cells/ml with high dose anti-CD3/CD28 beads and co-culture medium (RPMI-1640+10% FBS+1% Pen/strep) and seed 200 μL/well into 96-well plate. Compound at different concentration was added to each well and the plate was incubated for a further 72 hr. Level of INF-gamma in the co-culture media (100 μL) was analyzed using the Human IFN-gamma ELISA Ready-SET-GO kit from eBioscience.

[4] = tested on: kynurenine production in SKOV-3 cells; assay: Inhibition of kynurenine production in SKOV-3 cells; type: cell-based, human; details: FIG. 1
Procedure: as §1, with “The reaction mixture was then centrifuged for 10 minutes at 2500 rpm and 100 uL of the supernatant per well was transferred to another 96 well plate and mixed with 100 uL of 2% (w/v) p-dimethylaminobenzaldehyde in acetic acid.” left out
The effect of compounds described herein on the inhibition of kynurenine production in SKOV-3 cells (derived from human ovarian cancer) was determined using a similar experimental procedure as described in Example A. Exemplary results are shown in FIG. 1. […]

SMILES	pIC50 ([1]; Homo sapiens, HeLa)	CLint scaled at 1 µM [2] [mL/min/kg]	hepatocyte CLint at 1 µM [2] [µL/min/1e6 cells]	half-life at 1 µM [2] [h]	Human Hepatocyte Remaining Percentage @ 120 min (pooled human hepatocytes; pooled human hepatocytes)	pEC50 ([3]; Homo sapiens)	pIC50 [1]	pIC50 [4]	Human In vitro Clint (μL/min/10^6 cells) (pooled human hepatocytes; pooled human hepatocytes)	Human In vitro T1/2 (pooled human hepatocytes; pooled human hepatocytes) [h]	Human Scale-up Clint (pooled human hepatocytes; scaled up from in vitro t1/2, scaling factor 2544.3) [mL/min/kg]	pEC50 [3]
CC(C)CN(CC(C)C)c1ncc(C2(C(=O)O)CCC2)cc1Nc1ccc(Cl)cc1 [Compound 84]	9.40	5.7	2.2	10.4	80	–	–	–	–	–	–	–
CC(C)CN(c1ncc(C2(C(=O)O)CCC2)cc1Nc1ccc(C#N)cc1)C1CCOCC1 [Compound 91]	9.52	3.3	1.3	17.7	92	–	–	–	–	–	–	–
CC(C)CN(CC(C)C)c1ccc(C2(C(=O)O)CCC2)cc1Nc1ccc(Cl)cn1 [Compound 105]	9.52	13	5.1	4.58	81	–	–	–	–	–	–	–
CC(C)CN(CC(C)C)c1ncc(C2(C(=O)O)CCC2)cc1Nc1ccc(C#N)cn1 [Compound 106]	9.40	18	7	3.3	69	–	–	–	–	–	–	–
CC(C)CN(CC(C)C)c1ncc(C2(C(=O)O)CCC2)cc1Nc1ccc(Cl)cn1 [Compound 107]	9.40	14	5.5	4.2	76	–	–	–	–	–	–	–
CC(C)N(CC1CC1)c1ncc(C2(C(=O)O)CCC2)cc1Nc1ccc(C#N)cn1 [Compound 110]	9.00	16	6.4	3.6	71	–	–	–	–	–	–	–
CC(C)N(CC1CC1)c1ncc(C2(C(=O)O)CCC2)cc1Nc1ccc(Cl)cn1 [Compound 111]	9.10	20	7.7	2.98	63	–	–	–	–	–	–	–
CCN(c1ncc(C2(C(=O)O)CCC2)cc1Nc1ccc(C#N)cc1)C1CCOCC1 [Compound 125]	9.30	2.2	0.9	26.6	97	–	–	–	–	–	–	–
CC(C)CN(CC(C)C)c1ccc(C(CC(=O)O)C(F)(F)F)cc1NC(=O)Nc1ccc(F)cc1F (centres unmarked) [Control 1, 3-(3-(3-(2,4-difluorophenyl)ureido)-4-(diisobutylamino)phenyl)-4,4,4-trifluorobutanoic acid, reference compound]	9.10	11	4.1	5.6	76	–	–	–	–	–	–	–
NS(=O)(=O)NCCNc1nonc1/C(=N/O)Nc1ccc(F)c(Br)c1 [INCB-24360, reference compound]	–	–	–	–	35	–	8.16	7.99	19	1.22	48	7.39

More lines, now with the values ahead:

pIC50 ([1]; Homo sapiens, HeLa)	CLint scaled at 1 µM [2] [mL/min/kg]	hepatocyte CLint at 1 µM [2] [µL/min/1e6 cells]	half-life at 1 µM [2] [h]	Human Hepatocyte Remaining Percentage @ 120 min (pooled human hepatocytes; pooled human hepatocytes)	pEC50 ([3]; Homo sapiens)	pIC50 [1]	pIC50 [4]	Human In vitro Clint (μL/min/10^6 cells) (pooled human hepatocytes; pooled human hepatocytes)	Human In vitro T1/2 (pooled human hepatocytes; pooled human hepatocytes) [h]	Human Scale-up Clint (pooled human hepatocytes; scaled up from in vitro t1/2, scaling factor 2544.3) [mL/min/kg]	pEC50 [3]	SMILES
9.52	13	5.2	4.47	75	–	–	–	–	–	–	–	CC(C)CN(c1ccc(C2(C(=O)O)CCC2)cc1Nc1ccc(C#N)cn1)C1CCOCC1 [Compound 86]
10.00	9.3	3.6	6.35	83	–	–	–	–	–	–	–	CCN(c1ccc(C2(C(=O)O)CCC2)cc1Nc1ccc(Cl)cn1)C1CCOCC1 [Compound 115]
9.05	1.7	0.7	35.4	93	–	–	–	–	–	–	–	CCOc1ncc(Nc2cc(C3(C(=O)O)CCC3)ccc2N(CC)C2CCOCC2)cn1 [Compound 117]
9.70	8.5	3.3	6.93	85	–	–	–	–	–	–	–	CCN(c1ccc(C2(C(=O)O)CCC2)cc1Nc1ccc(C#N)cn1)C1CCOCC1 [Compound 118]
10.00	3.5	1.4	17.1	94	8.04	–	–	–	–	–	–	CCN(c1ncc(C2(C(=O)O)CCC2)cc1Nc1ccc(Cl)cc1)C1CCOCC1 [Compound 120]
9.52	3.7	1.4	16.1	100	–	–	–	–	–	–	–	CCN(c1ncc(C2(C(=O)O)CCC2)cc1Nc1ccc(Cl)cn1)C1CCOCC1 [Compound 123]

Source: patent US11969425B2, “Inhibitor of indoleamine-2,3-dioxygenase (IDO)” (InventisBio LLC, priority 2016, dated 2024)
